Earlier results as cited in patent US20200246411A1, “ANTI-DIARRHOEAL HERBAL COMPOSITIONS” (SRH NUTRITION LLP, priority 2017, published 2020).

Conditions: conventional drug use

Structure (SMILES)	disadvantages / adverse reactions
[Bi] [Bismuth]	Causes adverse reactions (dizziness, cephalea, constipation, dark stools,
COc1ccc2c3c1O[C@H]1[C@@H](O)C=C[C@H]4[C@@H](C2)N(C)CC[C@@]341 [Codeine]	Produces secondary effects such as nausea, dizziness and acts against
CCOC(=O)C1(c2ccccc2)CCN(CCC(C#N)(c2ccccc2)c2ccccc2)CC1 [Diphenoxylate]	Therapeutic doses induce adverse reactions in the CNS (confusion,
CN(C)C(=O)C(CCN1CCC(O)(c2ccc(Cl)cc2)CC1)(c1ccccc1)c1ccccc1 [Loperamide]	Frequent adverse reactions induced are hypersensibility reactions
CC(=O)SCC(Cc1ccccc1)C(=O)NCC(=O)OCc1ccccc1 (centres unmarked) [Racecadotril]	Cause some adverse reactions such as hypokalemia, bronchospasm,
